In patent US20260132125A1, “PESTICIDALLY ACTIVE FUSED BICYCLIC HETEROAROMATIC COMPOUNDS” (priority 2022, published 2026) one finds percent control (mortality, anti-feedant effect or growth inhibition), percent effect (mortality or growth inhibition) and mortality data, which are given here for nine compounds.

Holding throughout (format): in vivo
The subject of one experiment is Spodoptera littoralis. The experiment is described as follows: Example B6: activity against Spodoptera littoralis (Egyptian cotton leaf worm), cotton leaf discs. Conditions: foliar; for percent control (mortality, anti-feedant effect or growth inhibition) at 200 ppm: 72 h, L1 larvae, 3 days after infestation, read-out: control (at least one of mortality, anti-feedant effect, growth inhibition). The procedure:
Cotton leaf discs were placed onto agar in 24-well microtiter plates and sprayed with aqueous test solutions prepared from 10′000 ppm DMSO stock solutions. After drying the leaf discs were infested with five L1 larvae. The samples were assessed for mortality, anti-feeding effect, and growth inhibition in comparison to untreated samples 3 days after infestation. Control of Spodoptera littoralis by a test sample is given when at least one of the categories mortality, anti-feedant effect, and growth inhibition is higher than the untreated sample.

The subject of another experiment is Chilo suppressalis. The experiment is described as follows: Example B1: activity against Chilo suppressalis (striped rice stemborer), artificial diet. Conditions: for percent control (mortality, anti-feedant effect or growth inhibition) at 200 ppm: 144 h, L2 larvae, 6 days after infestation, read-out: control (at least one of mortality, anti-feedant effect, growth inhibition). Here is the method: 24-well microtiter plates with artificial diet were treated with aqueous test solutions prepared from 10′000 ppm DMSO stock solutions by pipetting. After drying, the plates were infested with L2 larvae (6-8 per well). The samples were assessed for mortality, anti-feeding effect, and growth inhibition in comparison to untreated samples 6 days after infestation. Control of Chilo suppressalis by a test sample is given when at least one of the categories mortality, anti-feedant effect, and growth inhibition is higher than the untreated sample.

A further experiment has as its system Plutella xylostella. Description: Example B5: activity against Plutella xylostella (diamond back moth), artificial diet, eggs. Conditions: 192 h, 8 days after infestation, read-out: effect in at least one of the two categories (mortality or growth inhibition). Here is the method: 24-well microtiter plates with artificial diet were treated with aqueous test solutions prepared from 10′000 ppm DMSO stock solutions by pipetting. After drying, Plutella eggs were pipetted through a plastic stencil onto a gel blotting paper and the plate was closed with it. The samples were assessed for mortality and growth inhibition in comparison to untreated samples 8 days after infestation. The following compounds gave an effect of at least 80% in at least one of the two categories (mortality or growth inhibition) at an application rate of 200 ppm: P1, P2, P3, P4, P5, P6, P7, P8, P9, P10, P11, P12, P13, P14, P15, P16, P17, P18, P19, P20, P21, P22, P23, P24, P25, P26, P27, P28, P29, P30, P31, P32, P33, P34, P35, P36, P37, P38, P39, P40, P41, P42, P43, P44, P45, P46, P47, P48, P49, P50, P51, P52, P53, P54, P55, P57, P58, P59, P60, P61, P62, P63, P64, P65, P66, P67, P69, P70, P71, P72, P73, P74, P75, P77, P78, P81, P82, P83.

Molecules are shown by their SMILES. Some results are limits rather than exact numbers.

For the compound `C[C@H](Nc1ncnc2c(Cl)cc(I)cc12)c1ncnn1-c1cnc(C(=O)NCC#N)cn1` [Compound P70, 5-[5-[(1S)-1-[(8-chloro-6-iodo-quinazolin-4-yl)amino]ethyl]-1,2,4-triazol-1-yl]-N-(cyanomethyl)pyrazine-2-carboxamide], the percent control (mortality, anti-feedant effect or growth inhibition) at 200 ppm with Spodoptera littoralis and with Chilo suppressalis was at least 80% each time. The percent effect (mortality or growth inhibition) at 200 ppm in the experiment on Plutella xylostella is at least 80%.

In the case of `C[C@H](Nc1ncnc2c(C(F)(F)F)cc(Cl)cc12)c1ncnn1-c1ncc(C#N)s1` [WO 22/268648 P10, reference compound], in the experiment on Chilo suppressalis (12.5 ppm), the mortality at 12.5 ppm came out at 0%.

Consider `C[C@H](Nc1ncnc2c(Cl)cc(I)cc12)c1ncnn1-c1ncc(C#N)s1` [WO 22/268648 P20, reference compound], for which the mortality at 50 ppm with Spodoptera littoralis (50 ppm) stood at 0%.

Regarding `CCN(C)C(=O)c1cnc(-n2ncnc2[C@H](C)Nc2ncnc3c(C(F)(F)F)cc(Cl)cc23)s1` [Compound P6, 2-[5-[(1S)-1-[[6-chloro-8-(trifluoromethyl)quinazolin-4-yl]amino]ethyl]-1,2,4-triazol-1-yl]-N-ethyl-N-methyl-thiazole-5-carboxamide], the percent control (mortality, anti-feedant effect or growth inhibition) at 200 ppm in the experiment on Spodoptera littoralis and in the experiment on Chilo suppressalis was at least 80% throughout. In the experiment with Plutella xylostella, the percent effect (mortality or growth inhibition) at 200 ppm is at least 80%.

Turning to `C[C@H](Nc1ncnc2c(C(F)(F)F)cc(Cl)cc12)c1ncnn1-c1cc(C(=O)NC2(C)CS(=O)(=O)C2)ncn1` [Compound P44, 6-[5-[(1S)-1-[[6-chloro-8-(trifluoromethyl)quinazolin-4-yl]amino]ethyl]-1,2,4-triazol-1-yl]-N-(3-methyl-1,1-dioxo-thietan-3-yl)pyrimidine-4-carboxamide], in the experiment with Plutella xylostella, the percent effect (mortality or growth inhibition) at 200 ppm is at least 80%.

For `C[C@H](Nc1ncnc2c(C(F)(F)F)cc(Cl)cc12)c1ncnn1-c1cc(C(=O)N(C)CC2CC2)ncn1` [Compound P78, 6-[5-[(1S)-1-[[6-chloro-8-(trifluoromethyl)quinazolin-4-yl]amino]ethyl]-1,2,4-triazol-1-yl]-N-(cyclopropylmethyl)-N-methyl-pyrimidine-4-carboxamide], the percent effect (mortality or growth inhibition) at 200 ppm with Plutella xylostella is at least 80%.

`CC(Nc1ncnc2c(C(F)(F)F)cc(Cl)cc12)c1nccnc1-c1ncccn1` (centres unmarked) [WO 21/083936 P.130, reference compound] registered a mortality at 3.12 ppm with Spodoptera littoralis (3.12 ppm) of 0%. Moreover, in the experiment on Chilo suppressalis (50 ppm), the mortality at 50 ppm turned out to be 0%.

On to `C[C@H](Nc1ncnc2c(C(F)(F)F)cc(Cl)cc12)c1ncnn1-c1cc(C(=O)N2CCOCC2)ncn1` [Compound P32, [6-[5-[(1S)-1-[[6-chloro-8-(trifluoromethyl)quinazolin-4-yl]amino]ethyl]-1,2,4-triazol-1-yl]pyrimidin-4-yl]-morpholino-methanone], for which the percent control (mortality, anti-feedant effect or growth inhibition) at 200 ppm in the experiment on Spodoptera littoralis and in the experiment on Chilo suppressalis was at least 80% in each case. For the same compound, in the experiment with Plutella xylostella, the percent effect (mortality or growth inhibition) at 200 ppm is at least 80%.

Take `C[C@H](Nc1ncnc2c(Cl)cc(I)cc12)c1ncnn1-c1cnc(C(N)=O)cn1` [Compound P77, 5-[5-[(1S)-1-[(8-chloro-6-iodo-quinazolin-4-yl)amino]ethyl]-1,2,4-triazol-1-yl]pyrazine-2-carboxamide]: in the experiment on Chilo suppressalis, the percent control (mortality, anti-feedant effect or growth inhibition) at 200 ppm is at least 80%. Further, the percent effect (mortality or growth inhibition) at 200 ppm with Plutella xylostella was at least 80%.

By mortality is commonly meant the percentage killed.
